# Measurements taken from patent publication US20140094424A1, “MICROBICIDAL COMPOSITIONS AND METHODS OF PRODUCTION USE THEREOF” (priority 2011, published 2014).
# Columns and labels:
# Gram positive rods (S) = assay: MBC (minimum bactericidal concentration) test in Wash NEXT reagent; assay type: cell-based
# Pseudomonas putida (K) = assay: as above; assay type: cell-based
structure (smiles),measurement,setting,value
"[N-]=[N+]=[N-] [Sodium Azide, sodium azide]",MBC test growth score,"Gram positive rods (S); 10% preservative, 8 hour",+
same,MBC test growth score,"Gram positive rods (S); 10% preservative, 24 hour",+
same,MBC test growth score,"Gram positive rods (S); 10% preservative, 48 hour",+
same,MBC test growth score,"Gram positive rods (S); 10% preservative, 72 hour",+
same,MBC test growth score,"Gram positive rods (S); 10% preservative, 7 day",+
same,MBC test growth score,"Gram positive rods (S); 10% preservative, 14 day",+
same,MBC test growth score,"Gram positive rods (S); 20% preservative, 8 hour",+
same,MBC test growth score,"Gram positive rods (S); 20% preservative, 24 hour",+
same,MBC test growth score,"Gram positive rods (S); 20% preservative, 48 hour",+
same,MBC test growth score,"Gram positive rods (S); 20% preservative, 72 hour",+
same,MBC test growth score,"Gram positive rods (S); 20% preservative, 7 day",+
same,MBC test growth score,"Gram positive rods (S); 20% preservative, 14 day",+
same,MBC test growth score,"Gram positive rods (S); 30% preservative, 8 hour",+
same,MBC test growth score,"Gram positive rods (S); 30% preservative, 24 hour",+
same,MBC test growth score,"Gram positive rods (S); 30% preservative, 48 hour",+
same,MBC test growth score,"Gram positive rods (S); 30% preservative, 72 hour",+
same,MBC test growth score,"Gram positive rods (S); 30% preservative, 7 day",+
same,MBC test growth score,"Gram positive rods (S); 30% preservative, 14 day",+
same,MBC test growth score,"Gram positive rods (S); 40% preservative, 8 hour",+
same,MBC test growth score,"Gram positive rods (S); 40% preservative, 24 hour",+
same,MBC test growth score,"Gram positive rods (S); 40% preservative, 48 hour",+
same,MBC test growth score,"Gram positive rods (S); 40% preservative, 72 hour",+
same,MBC test growth score,"Gram positive rods (S); 40% preservative, 7 day",+
same,MBC test growth score,"Gram positive rods (S); 40% preservative, 14 day",+
same,MBC test growth score,"Gram positive rods (S); 50% preservative, 8 hour",+
same,MBC test growth score,"Gram positive rods (S); 50% preservative, 24 hour",+
same,MBC test growth score,"Gram positive rods (S); 50% preservative, 48 hour",+
same,MBC test growth score,"Gram positive rods (S); 50% preservative, 72 hour",+
same,MBC test growth score,"Gram positive rods (S); 50% preservative, 7 day",+
same,MBC test growth score,"Gram positive rods (S); 50% preservative, 14 day",+
same,MBC test growth score,"Gram positive rods (S); 60% preservative, 8 hour",+
same,MBC test growth score,"Gram positive rods (S); 60% preservative, 24 hour",+
same,MBC test growth score,"Gram positive rods (S); 60% preservative, 48 hour",+
same,MBC test growth score,"Gram positive rods (S); 60% preservative, 72 hour",+
same,MBC test growth score,"Gram positive rods (S); 60% preservative, 7 day",+
same,MBC test growth score,"Gram positive rods (S); 60% preservative, 14 day",+
same,MBC test growth score,"Gram positive rods (S); 70% preservative, 8 hour",+
same,MBC test growth score,"Gram positive rods (S); 70% preservative, 24 hour",+
same,MBC test growth score,"Gram positive rods (S); 70% preservative, 48 hour",+
same,MBC test growth score,"Gram positive rods (S); 70% preservative, 72 hour",+
same,MBC test growth score,"Gram positive rods (S); 70% preservative, 7 day",+
same,MBC test growth score,"Gram positive rods (S); 70% preservative, 14 day",+
same,MBC test growth score,"Gram positive rods (S); 80% preservative, 8 hour",+
same,MBC test growth score,"Gram positive rods (S); 80% preservative, 24 hour",+
same,MBC test growth score,"Gram positive rods (S); 80% preservative, 48 hour",+
same,MBC test growth score,"Gram positive rods (S); 80% preservative, 72 hour",+
same,MBC test growth score,"Gram positive rods (S); 80% preservative, 7 day",+
same,MBC test growth score,"Gram positive rods (S); 80% preservative, 14 day",+
same,MBC test growth score,"Gram positive rods (S); 90% preservative, 8 hour",+
same,MBC test growth score,"Gram positive rods (S); 90% preservative, 24 hour",+
same,MBC test growth score,"Gram positive rods (S); 90% preservative, 48 hour",+
same,MBC test growth score,"Gram positive rods (S); 90% preservative, 72 hour",+
same,MBC test growth score,"Gram positive rods (S); 90% preservative, 7 day",+
same,MBC test growth score,"Gram positive rods (S); 90% preservative, 14 day",+
same,MBC test growth score,"Gram positive rods (S); 100% preservative, 8 hour",+
same,MBC test growth score,"Gram positive rods (S); 100% preservative, 24 hour",+
same,MBC test growth score,"Gram positive rods (S); 100% preservative, 48 hour",+
same,MBC test growth score,"Gram positive rods (S); 100% preservative, 72 hour",+
same,MBC test growth score,"Gram positive rods (S); 100% preservative, 7 day",+
same,MBC test growth score,"Gram positive rods (S); 100% preservative, 14 day",+
same,total kill at % preservative (MBC),"Gram positive rods (S); at 14 days, listed as Na Azide",No kill @ 100%
same,MBC test growth score,"Pseudomonas putida (K); 10% preservative, 8 hour",+
same,MBC test growth score,"Pseudomonas putida (K); 10% preservative, 24 hour",+
same,MBC test growth score,"Pseudomonas putida (K); 10% preservative, 48 hour",+
same,MBC test growth score,"Pseudomonas putida (K); 10% preservative, 72 hour",+
same,MBC test growth score,"Pseudomonas putida (K); 20% preservative, 8 hour",+
same,MBC test growth score,"Pseudomonas putida (K); 20% preservative, 24 hour",+
same,MBC test growth score,"Pseudomonas putida (K); 20% preservative, 48 hour",+
same,MBC test growth score,"Pseudomonas putida (K); 20% preservative, 72 hour",+
same,MBC test growth score,"Pseudomonas putida (K); 30% preservative, 8 hour",+
same,MBC test growth score,"Pseudomonas putida (K); 30% preservative, 24 hour",+
same,MBC test growth score,"Pseudomonas putida (K); 30% preservative, 48 hour",+
same,MBC test growth score,"Pseudomonas putida (K); 30% preservative, 72 hour",+
same,MBC test growth score,"Pseudomonas putida (K); 40% preservative, 8 hour",+
same,MBC test growth score,"Pseudomonas putida (K); 40% preservative, 24 hour",+
same,MBC test growth score,"Pseudomonas putida (K); 40% preservative, 48 hour",+
same,MBC test growth score,"Pseudomonas putida (K); 40% preservative, 72 hour",+
same,MBC test growth score,"Pseudomonas putida (K); 50% preservative, 8 hour",+
same,MBC test growth score,"Pseudomonas putida (K); 50% preservative, 24 hour",+
same,MBC test growth score,"Pseudomonas putida (K); 50% preservative, 48 hour",+
same,MBC test growth score,"Pseudomonas putida (K); 50% preservative, 72 hour",+
same,MBC test growth score,"Pseudomonas putida (K); 60% preservative, 8 hour",+
same,MBC test growth score,"Pseudomonas putida (K); 60% preservative, 24 hour",+
same,MBC test growth score,"Pseudomonas putida (K); 60% preservative, 48 hour",+
same,MBC test growth score,"Pseudomonas putida (K); 60% preservative, 72 hour",+
same,MBC test growth score,"Pseudomonas putida (K); 70% preservative, 8 hour",+
same,MBC test growth score,"Pseudomonas putida (K); 70% preservative, 24 hour",+
same,MBC test growth score,"Pseudomonas putida (K); 70% preservative, 48 hour",+
same,MBC test growth score,"Pseudomonas putida (K); 70% preservative, 72 hour",+
same,MBC test growth score,"Pseudomonas putida (K); 80% preservative, 8 hour",+
same,MBC test growth score,"Pseudomonas putida (K); 80% preservative, 24 hour",+
same,MBC test growth score,"Pseudomonas putida (K); 80% preservative, 48 hour",+
same,MBC test growth score,"Pseudomonas putida (K); 80% preservative, 72 hour",+
same,MBC test growth score,"Pseudomonas putida (K); 90% preservative, 8 hour",+
same,MBC test growth score,"Pseudomonas putida (K); 90% preservative, 24 hour",+
same,MBC test growth score,"Pseudomonas putida (K); 90% preservative, 48 hour",+
same,MBC test growth score,"Pseudomonas putida (K); 90% preservative, 72 hour",+
same,MBC test growth score,"Pseudomonas putida (K); 100% preservative, 8 hour",+
same,MBC test growth score,"Pseudomonas putida (K); 100% preservative, 24 hour",+
same,MBC test growth score,"Pseudomonas putida (K); 100% preservative, 48 hour",+
same,MBC test growth score,"Pseudomonas putida (K); 100% preservative, 72 hour",+
same,total kill at % preservative (MBC),"Pseudomonas putida (K); at 72 hours, listed as Na Azide",No kill @ 100%
